Measurements published in patent publication US20110092476A1, “Bicycloheteroaryl compounds as P2X7 modulators and uses thereof” (Renovis, Inc., priority 2006, published 2011).
Values after ≈ are worked out from the molar mass of the structure shown. Read-outs that look alike come from different tables or passages of the source.

Assays:
[1] = molecular target: T1, P2X7 receptor (Homo sapiens, UniProt Q99572); assay: IL-1β release assay in differentiated THP-1 cells stimulated with BzATP (Example 9); assay type: cell-based
T1 construct: host or cells: THP-1 cells differentiated with LPS and IFN-γ
T1 sequence (Q99572 1-595): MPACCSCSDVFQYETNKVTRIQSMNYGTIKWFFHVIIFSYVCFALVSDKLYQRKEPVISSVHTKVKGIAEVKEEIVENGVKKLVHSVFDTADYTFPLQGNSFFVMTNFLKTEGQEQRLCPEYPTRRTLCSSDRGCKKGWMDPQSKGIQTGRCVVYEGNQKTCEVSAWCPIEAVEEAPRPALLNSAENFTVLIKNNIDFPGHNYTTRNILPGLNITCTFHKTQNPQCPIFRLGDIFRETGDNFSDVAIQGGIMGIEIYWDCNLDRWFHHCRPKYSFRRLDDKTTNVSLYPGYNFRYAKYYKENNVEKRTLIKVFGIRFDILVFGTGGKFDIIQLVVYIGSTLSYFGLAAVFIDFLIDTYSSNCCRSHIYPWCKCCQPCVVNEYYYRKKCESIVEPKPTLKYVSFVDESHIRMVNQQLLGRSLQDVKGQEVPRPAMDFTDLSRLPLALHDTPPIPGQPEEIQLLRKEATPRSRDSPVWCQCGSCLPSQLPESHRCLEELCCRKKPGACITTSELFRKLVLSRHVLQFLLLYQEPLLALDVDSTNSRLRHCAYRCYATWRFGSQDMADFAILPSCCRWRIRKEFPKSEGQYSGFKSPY
Procedure, shortened: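 THP-1 cells differentiated 16 h with 100 ng/mL LPS and 100 ng/mL IFN-γ, primed 2 h with fresh LPS, pretreated 30 min with compound, then stimulated 45 min with 250 uM BzATP (final). Supernatant IL-1β measured by ELISA; background-adjusted percent inhibition fitted to a four-parameter logistic for IC50.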

[2] = Pharmacokinetic evaluation following intravenous and oral administration in rats (oral bioavailability); assay type: in vivo, rat; details: male Sprague-Dawley rats, PO 1 to 5 mg/kg vs IV 1 mg/kg, AUCinf dose-normalized
Description: Male Sprague-Dawley rats are acclimatized for at least 24 hours prior to experiment initiation. During acclimation period, all animals receive food and water ad libitum. However, food but not water is removed from the animal's cages at least 12 hours before initiation of the experiment. During the first 3 hours of experimentation, the animals receive only water ad libitum. At least three animals each are tested for intravenous and oral dosage. For intravenous formulation, compounds were dissolved (0.25 to 1 mg/mL) in a mixture of 3% dimethyl sulfoxide, 40% PEG 400 and the rest percentage of 40% Captisol in water (w/v). The animals are weighed before dosing. The determined body weight is used to calculate the dose volume for each animal.
Dose volume (mL/kg)=1 mg/kg/formulation concentration (mg/mL)
In instances where the formulation concentrations were less than 0.5 mg/mL, the dosing volume is about 2 mL/kg.
PO rats are typically dosed through oral gavage following the same dose volume formula as IV to achieve a dose level of 1 to 5 mg/kg. […] About 250 uL of blood is obtained at each time point from the animal. Equal volumes of 0.9% normal saline are replaced to prevent dehydration. The whole blood samples are maintained on ice until centrifugation. Blood samples are then centrifuged at 14,000 rpm for 10 minutes at 4° C. and the upper plasma layer transferred into a clean vial and stored at −80° C. The resulting plasma samples are then analyzed by liquid chromatography-tandem mass spectrometry. Following the measurement of plasma samples and dosing solutions, plasma concentration-time curve is plotted. Plasma exposure is calculated as the area under the concentration-time curve extrapolated to time infinite (AUinf). The AUCinf is averaged and the oral bioavailability (% F) for individual animal is calculated as:
AUCinf (PO)/AUCinf (IV), normalized to their respective dose levels. The % F is reported as the mean % F of all animals dosed orally with the compound of the invention at the specified level (see Table 4 below).
For the purpose of Table 4, oral bioavailability of each compound is expressed as follows: […]

[3] = Half-life in human liver microsomes (HLM); details: pH 7.4
Description: Test compounds (1 μM) are incubated with 3.3 mM MgCl2 and 0.78 mg/mL HLM (HL101) in 100 mM potassium phosphate buffer (pH 7.4) at 37° C. on the 96-deep well plate. The reaction mixture is split into two groups, a non-P450 and a P450 group. NADPH is only added to the reaction mixture of the P450 group. An aliquot of samples of P450 group is collected at 0, 10, 30, and 60 min time point, where 0 min time point indicated the time when NADPH is added into the reaction mixture of P450 group. […] Collected aliquots are extracted with acetonitrile solution containing an internal standard. […] The compound concentration in supernatant is measured by LC/MS/MS system.
The half-life value is obtained by plotting the natural logarithm of the peak area ratio of compounds/internal standard versus time. The slope of the line of best fit through the points yields the rate of metabolism (k). This is converted to a half-life value using following equations:

[4] = Determination of aqueous (kinetic) solubility; assay type: physicochemical; details: aqueous buffer, kinetic from dmso stock, buffer pH 7.4
Description: The mixture was vortexed for 1 hour and equilibrated overnight at room temperature. The mixture was filtered through a saturated filter and the filtrate was analyzed by LC/MS/MS.
For the purpose of Table 5, solubility of each compound is expressed as follows: […]

[5] = 0.3 μM compound, differentiated THP-1 cells, BzATP 250 uM, "+" symbols, read-out: IL-1β % Inhib. @ 0.3 or 0.1 uM
[6] = THP-1, read-out: IL-1β % Inhib. @ 0.3 or 0.1 uM

Compound | inhibition at 0.3 µM [1, 5] | Oral Bioavailability F (%) [2] | half-life at 1 μM [3] | solubility [4] | inhibition at 0.3 µM [1, 6] | inhibition at 0.3 µM ([1]; differentiated THP-1 cells, BzATP 250 uM, "+" symbols = compound at 0.3 μM, read-out: IL-1β % Inhib. @ 0.3 or 0.1 uM) | inhibition at 0.3 µM ([1]; 0.3 μM compound (symbols +), differentiated THP-1 cells, BzATP 250 uM, read-out: IL-1β % Inhib. @ 0.3 or 0.1 uM)
C[C@H](CO)n1ccc2c(NC(=O)Cc3ccc(C(F)(F)F)cc3F)cccc2c1=O [Compound 359] | > 76% | ++++ (>75% F) | 1.16 h | < 25 µM | – | – | –
C[C@H](C(=O)Nc1cccc2c(=O)n([C@H](C)C(N)=O)ccc12)c1ccc(Cl)cc1 [Compound 263] | > 76% | ++ (26-50% F) | 2.31 h | > 75 µM | – | – | –
C[C@H](CO)n1ccc2c(NC(=O)Cc3ccc(F)c(C(F)(F)F)c3)c(Cl)ccc2c1=O [Compound 377, N-[6-Chloro-2-((R)-2-hydroxy-1-methyl-ethyl)-1-oxo-1,2-dihydro-isoquinolin-5-yl]-2-(4-fluoro-3-trifluoromethyl-phenyl)-acetamide] | – | +++ (51-75% F) | 1.01 h | > 75 µM | > 76% | – | –
CC(C(=O)Nc1cccc2c(=O)n([C@H](C)C(N)=O)ccc12)c1ccc(Cl)c(Cl)c1 (some centres unmarked) [Compound 254] | > 76% | + (0-25% F) | 1.46 h | 26 to 50 µM (≈ 11.2 to 21.6 µg/mL) | – | – | –
C[C@H](CO)n1ccc2c(NC(=O)Cc3cccc(C(F)(F)F)c3F)cccc2c1=O [Compound 324] | > 76% | ++ (26-50% F) | 0.7 h | > 75 µM | – | – | –
O=C(Cc1ccc(F)c(C(F)(F)F)c1)Nc1c(Cl)ccc2c(=O)n(CCO)ccc12 [Compound 386, N-[6-Chloro-2-(2-hydroxy-ethyl)-1-oxo-1,2-dihydro-isoquinolin-5-yl]-2-(4-fluoro-3-trifluoromethyl-phenyl)-acetamide] | – | + (0-25% F) | 1.08 h | < 25 µM | > 76% | – | –
C[C@H](CO)n1ccc2c(NC(=O)Cc3ccc(C(F)(F)F)c(F)c3)c(Cl)ccc2c1=O [Compound 375, N-[6-Chloro-2-((R)-2-hydroxy-1-methyl-ethyl)-1-oxo-1,2-dihydro-isoquinolin-5-yl]-2-(3-fluoro-4-trifluoromethyl-phenyl)-acetamide] | > 76% | ++++ (>75% F) | 1.63 h | > 75 µM | – | – | –
C[C@H](C(N)=O)n1ccc2c(NC(=O)Cc3ccc(Cl)cc3)cccc2c1=O [Compound 256] | > 76% | + (0-25% F) | 1.29 h | < 25 µM | – | – | –
Cc1ccc2c(=O)n(CCO)ccc2c1NC(=O)Cc1ccc(C(F)(F)F)c(F)c1 [Compound 400] | – | ++ (26-50% F) | 3.73 h | > 75 µM | – | > 76% | –
C[C@@H](C(N)=O)n1ccc2c(NC(=O)Cc3ccc(Cl)c(C(F)(F)F)c3)cccc2c1=O [Compound 353] | > 76% | + (0-25% F) | 1.01 h | < 25 µM | – | – | –
C[C@H](C(=O)Nc1cccc2c(=O)n([C@@H](C)C(N)=O)ccc12)c1ccc(Cl)cc1 [Compound 265] | > 76% | ++ (26-50% F) | 0.97 h | 26 to 50 µM (≈ 10.3 to 19.9 µg/mL) | – | – | –
C[C@@H](C(N)=O)n1ccc2c(NC(=O)Cc3ccc(C(F)(F)F)cc3)cccc2c1=O [Compound 351] | > 76% | + (0-25% F) | 2.36 h | < 25 µM | – | – | –
C[C@H](C(N)=O)n1ccc2c(NC(=O)Cc3ccc(C(F)(F)F)cc3)cccc2c1=O [Compound 298] | > 76% | + (0-25% F) | 3.35 h | < 25 µM | – | – | –
C[C@H](CO)n1ccc2c(NC(=O)Cc3ccc(Cl)c(Cl)c3)c(Cl)ccc2c1=O [Compound 376] | > 76% | ++ (26-50% F) | 0.9 h | > 75 µM | – | – | –
O=C(Cc1ccc(Cl)c(C(F)(F)F)c1)Nc1cccc2c(=O)n(C(CO)CO)ccc12 [Compound 81, 2-(4-Chloro-3-trifluoromethyl-phenyl)-N-[2-(2-hydroxy-1-hydroxymethyl-ethyl)-1-oxo-1,2-dihydro-isoquinolin-5-yl]-acetamide] | – | + (0-25% F) | 0.72 h | > 75 µM | – | – | > 76%
C[C@H](CO)n1ccc2c(NC(=O)Cc3ccc(F)c(C(F)(F)F)c3)cccc2c1=O [Compound 339] | > 76% | +++ (51-75% F) | 0.93 h | > 75 µM | – | – | –
C[C@H](C(N)=O)n1ccc2c(NC(=O)Cc3ccc(C(F)(F)F)cc3)c(Cl)ccc2c1=O [Compound 316, (R)-2-{6-Chloro-1-oxo-5-[2-(4-trifluoromethyl-phenyl)-acetylamino]-1H-isoquinolin-2-yl}-propionamide] | – | ++ (26-50% F) | 3.25 h | < 25 µM | > 76% | – | –
O=C(Cc1ccc(C(F)(F)F)c(F)c1)Nc1cccc2c(=O)n(CCO)ccc12 [Compound 357] | > 76% | ++++ (>75% F) | 1.54 h | < 25 µM | – | – | –
C[C@H](C(N)=O)n1ccc2c(NC(=O)[C@H](C)c3ccc(Cl)c(Cl)c3)cccc2c1=O [Compound 269] | > 76% | ++ (26-50% F) | 0.93 h | 26 to 50 µM (≈ 11.2 to 21.6 µg/mL) | – | – | –
CC(C(=O)Nc1cccc2c(=O)n([C@H](C)C(N)=O)ccc12)c1ccc(Cl)c(C(F)(F)F)c1 (stereo partly drawn) [Compound 267, (R)-2-{5-[2-(4-Chloro-3-trifluoromethyl-phenyl)-propionylamino]-1-oxo-1H-isoquinolin-2-yl}-propionamide] | > 76% | ++ (26-50% F) | 1.28 h | 51 to 75 µM (≈ 23.8 to 34.9 µg/mL) | – | – | –
C[C@H](CO)n1ccc2c(NC(=O)Cc3ccc(C(F)(F)F)c(F)c3)cccc2c1=O [Compound 335] | > 76% | ++ (26-50% F) | 0.93 h | > 75 µM | – | – | –
C[C@H](CO)n1ccc2c(NC(=O)Cc3ccc(Cl)c(F)c3)cccc2c1=O [Compound 330, 2-(4-Chloro-3-fluorophenyl)-N-[2-((R)-2-hydroxy-1-methyl-ethyl)-1-oxo-1,2-dihydro-isoquinolin-5-yl]-acetamide] | > 76% | ++++ (>75% F) | 1.41 h | > 75 µM | – | – | –
C[C@H](C(=O)Nc1cccc2c(=O)n([C@H](C)C(N)=O)ccc12)c1ccc(Cl)c(Cl)c1 [Compound 268] | > 76% | ++ (26-50% F) | 1.36 h | 51 to 75 µM (≈ 22 to 32.4 µg/mL) | – | – | –
